Source: patent US5366983A, “Use of quaternary ammonium compounds to remove salmonella contamination from meat products” (The Board of Trustees of The University of Arkansas, priority 1992, dated 1994)
Several values for one entry are separate records, joined by “and”; a condition that tells them apart may be missing. Equal entries are not always repeated. Where two headings read alike, the source gives them in different places.

Key:
[1] = tested on: Salmonella typhimurium on chicken skin; experiment: Effect of surfactants on Salmonella attached to chicken skin, drumsticks (Tables F1-F4); details: 25° C.
Method: The following experiments utilizing chicken legs were conducted to determine the killing potential of a variety of surfactants against Salmonella on the skin and free in solutions. To this end, chicken legs obtained from the Department of Agriculture at the University of Arkansas, Fayetteville, were incubated for thirty minutes at room temperature with a 1:5000 dilution of Salmonella typhimurium. The chicken legs were removed five at a time and then rinsed twice in tap water to remove the unattached and excess Salmonella. The rinse water was sampled, diluted, and then plated onto XLD pour plates. […] The chicken legs were then removed and rinsed twice in tap water to remove the released Salmonella and excess chemicals. Rinses were then sampled, diluted, and then plated onto XLD pour plates.
The chicken legs were then individually washed with 100 ml sterile double distilled water, and then shaken fifty times. Samples of the wash H2 O were diluted and plated onto XLD pour plates. The chicken legs were further swabbed after the washing step above. The swabs were then plated onto the XLD plates. A set of wash samples were enriched with TT Broth Base Hajna and then plated onto XLD plates.
All of the samples were plated in 1 ml aliquots onto XLD pour plates. A positive control sample incubated in sterile double distilled water at 4° C. was run for each of the aforementioned conditions. Treatments occurred at both 4° C. and 25° C. The data is reported as the mean number of CFU/ml. The ratio in the table represents the number of chicken legs out of a sample of ten chicken legs producing the notated number of colonies, as indicated by the +, ++, +++, or ++++.

[2] = tested on: Salmonella typhimurium ATCC 14028 attached to human buccal epithelial cells; format: cell-based; details: Table A-1
Method: Studies were conducted on the attachment of Salmonella typhimurium to human buccal epithelial cells using the modified procedure of Boussard et al., International J. Pharmaceutics 53: 253-256 (1989). In this study, the activities of cationic and anionic surfactant compounds as well as certain chelating agents were compared on the detachment of S. typhimurium from epithelial cells.
To this end, bacteria were grown on nutrient agar for 16 hours at 37° C. The cells were suspended in 0.008 M phosphate buffered saline (PBS) at pH 7.2 and washed two times at 4500 rpm for 10 minutes. The last suspension was diluted in PBS to obtain a cell concentration of 0.5 to 1×10^9 cells/ml. Human epithelial cells were obtained by swabbing the buccal surface of a healthy, nonsmoking donor. […] The number of living cells was estimated and the suspension diluted to 0.5 to 1×10^5 cells/ml.
Next, the suspension of the human buccal cells was mixed with an equal volume of the bacterial suspension (3.0 ml), or PBS (0.8 ml). Contact was allowed for 1.5 hours at 35° C. under agitation. The mixtures were then centrifuged for 10 minutes at 4500 rpm. Each suspension, 1.0 ml, was transferred into Eppendorf vials and washed with PBS at 1500 rpm for 10 minutes. After the washing, the cells were treated with 1.0 ml PBS or 1.0 ml of the test chemical solution. Treatment was performed by suspending and vortexing on a low speed for 30 seconds followed by centrifugation at 1500 rpm for 10 minutes.
After the treatment, the cells were washed once with PBS and then 20 μl of erythrosin B was added to each vial. The suspension was centrifuged at 1500 rpm for 10 minutes, and the cells were washed twice under the same conditions. The final pellet was suspended in 300 μl of PBS. This suspension was spread out onto microscope slides and dried overnight at room temperature. After counter staining with methylene blue, the slides were microscopically examined under oil immersion.

[3] = tested on: Salmonella typhimurium ATCC 14028; experiment: Minimum growth inhibitory concentration, macrodilution; format: cell-based; details: Mueler Hinton broth, macrodilution (NCCLS)
Method: Minimum growth inhibitory concentrations (MICs) of quaternary ammonium compounds and Na2 -EDTA for Salmonella were determined using Mueler Hinton broth (BBL Microbiology system, Cockeysville, Md.) and by the macrodilution method established by the National Committee for Clinical Laboratory Standards (NCCLS). Escherichia coli ATCC 25922 and Staphylococcus aureus ATCC 29213 were included in each assay as reference strains.

[4] = tested on: Salmonella typhimurium ATCC 14028 attached to human buccal epithelial cells; experiment: microbe, parasite or virus in culture; format: cell-based; details: for adherence, mean value of attached bacteria: Table A-3; for EC50: read-out: EC50 (±SD), detachment
Method: Additional studies on the detachment of Salmonella typhimurium from human buccal epithelial cells were conducted.
S. typhimurium ATCC 14028 was grown in nutrient broth (BBL Microbiology system, Cockeysville, Md.) for 16 hours at 37° C. The cells were centrifuged and washed twice with 0.008 M phosphate buffered saline (PBS, at pH 7.2) at 4500 rpm for 10 minutes. The last suspension was diluted in PBS to obtain a cell concentration 0.5 to 1×10^9 cells/ml using spectrophotometric measurement. Human epithelial cells were obtained by swabbing the buccal surface of a healthy, nonsmoking donor. […] The number of living cells was estimated and the suspension was diluted to 0.5 to 1×10^5 cells/ml.
The suspension of the human buccal cells was mixed with an equal volume of the bacterial suspension (3.0 ml), or PBS (0.8 ml) in 10 ml Erlenmeyer flasks. Contact was allowed for 1.5 hours at 35° C. under agitation. After incubation, 1.0 ml of each suspension was transferred into an Eppendorff vial, centrifuged at 3000 rpm for 10 minutes, and washed with PBS. The cells were treated with 1.0 ml PBS or 1.0 ml of the test chemical solution. Treatment was performed by suspending, gently vortexing, and centrifuging at 1500 rpm for 10 minutes. After the treatment, the cells were washed and placed on microscopic slides for examination.
EC50 represents the inverse measurement of the potency of a compound. EC50 values were determined by a nonlinear regression of the detachment effect versus the cationic surfactant concentration data from Table A-3.

[5] = tested on: Salmonella typhimurium ATCC 14028; experiment: Effect on viability of Salmonella in suspension (Tables D-1 to D-3); format: cell-based; details: for bacterial viability: Table D-1; for EC50: Salmonella enterica, read-out: EC50 (±SD), effect on viability in suspension
Method: EC50 values for four of the compounds were calculated from the bactericidal activity of the compounds as a function of molar concentration by a nonlinear regression algorithm.
In addition to the quaternary ammonium compounds, the antimicrobial activities of chelating agents Na2 -EDTA and EGTA were investigated. Na2 -EDTA was purchased from the Sigma Chemical Company (St. Louis, Mo.). Na2 -EDTA was dissolved in 0.04 M PPB prior to the assay and further dilutions were made in the same buffer.
EGTA was purchased from the Aldrich Chemical Company (Milwaukee, Wis.). EGTA was dissolved in 0.04 M PPB according to the procedure described by Harafuji and Ogawa (J. Biochem. 87:1305-1312 (1980)). After heating EGTA for 15 minutes at 80° C., the pH was adjusted to 7.0 by addition of NaOH. EGTA was filter-sterilized using a 0.2 μm Acro disc filter (Gelman Sciences; Ann Arbor, Mich.) prior to the assay. Further dilutions were made in sterile PPB.

[6] = Salmonella enterica, Epithelial cell

Row | SMILES | Enrichment, chicken legs out of ten ([1]; 0.1%) | Rinse H2O ([1]; 0.1%) | Surfactant Solution ([1]; 0.1%) [CFU/ml] | Swabs, chicken legs producing the notated number of colonies ([1]; 0.1%) | Swabs, colonies ([1]; 0.1%) | Wash H2O, colonies ([1]; 0.1%) | Enrichment, chicken legs out of ten ([1]; 1.0%) | Rinse H2O ([1]; 1.0%) [CFU/ml] | Surfactant Solution ([1]; 1.0%) [CFU/ml] | Swabs, chicken legs producing the notated number of colonies ([1]; 1.0%) | Wash H2O, colonies ([1]; 1.0%) [CFU/ml] | Enrichment, chicken legs out of ten ([1]; .01%) | Rinse H2O ([1]; .01%) | Surfactant Solution ([1]; .01%) | Swabs, chicken legs producing the notated number of colonies ([1]; .01%) | Swabs, colonies ([1]; .01%) | Wash H2O, chicken legs producing the notated number of colonies ([1]; .01%) | Wash H2O, colonies ([1]; .01%) | MIC [3] [µg/mL] | MIC ([3]; Salmonella enterica) [µg/mL] | other results
1 | CCCCCCCCCCCCCCCC[N+](C)(C)C.[Br-] [HTMAB, hexadecyltrimethylammonium bromide] | 5/10 | + (1-10) | 0 | 6/10 | + (1-10) | 0 CFU/ml | 0/10 | 0 | 0 | 3/10 | 0 | 5/10 | + (1-10) | 0 CFU/ml | 9/10 | + (1-10) | 10/10 | ++ (11-100) | 60 | 64 | Swabs, colonies ([1]; 1.0%): + (1-10); adherence, mean value of attached bacteria ([2]; 5 ug/ml): 49 ± 21; adherence, mean value of attached bacteria ([2]; 50 ug/ml): 48 ± 20; cytotoxicity to buccal epithelial cells ([2]; 500 ug/ml): cytotoxic; adherence, mean value of attached bacteria ([4]; 100 ug/ml): 82 ± 35; adherence, mean value of attached bacteria ([4]; 175 ug/ml): 57 ± 33; adherence, mean value of attached bacteria ([4]; 250 ug/ml): 33 ± 19; EC50 [4, 6]: 333 ± 14 µM; bacterial viability ([5]; 10 ug/ml): 1.06 ± 0.08 × 10^9 CFU/ml and 1.67 ± 0.12 × 10^9 CFU/ml; bacterial viability ([5]; 20 ug/ml): 3.23 ± 0.38 × 10^8 CFU/ml and 6.35 ± 1.03 × 10^8 CFU/ml; EC50 [5]: 48 ± 0.03 µM
2 | CCCCCCCCCCCCCC[N+](C)(C)C.[Br-] [TTMAB, tetradecyltrimethylammonium bromide] | 0/10 | ++ (11-100) | 0 | 5/10 | + (1-10) | 0 CFU/ml | 0/10 | 0 | 0 | 0/10 | 0 | 8/10 | + (1-10) | 0 CFU/ml | 10/10 | + (1-10) | 10/10 | ++ (11-100) | 60 | 64 | adherence, mean value of attached bacteria ([2]; 5 ug/ml): 37 ± 20; adherence, mean value of attached bacteria ([2]; 10 ug/ml): 39 ± 26; adherence, mean value of attached bacteria ([2]; 25 ug/ml): 24 ± 13; adherence, mean value of attached bacteria ([2]; 50 ug/ml): 28 ± 14; adherence, mean value of attached bacteria ([4]; 25 ug/ml): 91 ± 66; adherence, mean value of attached bacteria ([4]; 50 ug/ml): 53 ± 34; adherence, mean value of attached bacteria ([4]; 75 ug/ml): 72 ± 53; adherence, mean value of attached bacteria ([4]; 100 ug/ml): 42 ± 22 and 26 ± 14; adherence, mean value of attached bacteria ([4]; 175 ug/ml): 28 ± 10; EC50 [4, 6]: 129 ± 3.9 µM; minimal effective concentration ([4]; Salmonella enterica, Epithelial cell, read-out: active concentration, detachment): 25 µg/mL; bacterial viability ([5]; 10 ug/ml): 1.33 ± 0.09 × 10^9 CFU/ml; bacterial viability ([5]; 20 ug/ml): 1.06 ± 0.08 × 10^9 CFU/ml; bacterial viability ([5]; 60 ug/ml): 1.52 ± 2.07 × 10^3 CFU/ml; bacterial viability ([5]; 80 ug/ml): 100 ± 173 CFU/ml; bacterial viability ([5]; 100 ug/ml): 0 CFU/ml; EC50 [5]: 105 ± 0.8 µM
3 | CCCCCCCCCCCC[N+](C)(C)C.[Br-] [DTMAB, dodecyltrimethylammonium bromide] | 8/10 | + (1-10) | 0 | 6/10 | + (1-10) | ++ (11-100) | 0/10 | 0 | 0 | 0/10 | 0 | 10/10 | + (1-10) | + (1-10) | 10/10 | + (1-10) | 10/10 | ++ (11-100) | 150 | 156 | Wash H2O, chicken legs producing the notated number of colonies ([1]; 0.1%): 10/10; adherence, mean value of attached bacteria ([2]; 10 ug/ml): 76 ± 43; adherence, mean value of attached bacteria ([2]; 25 ug/ml): 41 ± 19; adherence, mean value of attached bacteria ([2]; 75 ug/ml): 30 ± 18; adherence, mean value of attached bacteria ([2]; 100 ug/ml): 23 ± 18; adherence, mean value of attached bacteria ([4]; 50 ug/ml): 113 ± 85; adherence, mean value of attached bacteria ([4]; 75 ug/ml): 102 ± 59; adherence, mean value of attached bacteria ([4]; 100 ug/ml): 92 ± 58 and 74 ± 56; adherence, mean value of attached bacteria ([4]; 150 ug/ml): 80 ± 59; adherence, mean value of attached bacteria ([4]; 200 ug/ml): 60 ± 43; adherence, mean value of attached bacteria ([4]; 250 ug/ml): 63 ± 35; adherence, mean value of attached bacteria ([4]; 300 ug/ml): 54 ± 35; adherence, mean value of attached bacteria ([4]; 325 ug/ml): 68 ± 39; EC50 [4, 6]: 868 ± 112 µM; bacterial viability ([5]; 10 ug/ml): 1.44 ± 0.07 × 10^9 CFU/ml; bacterial viability ([5]; 100 ug/ml): 1.3 ± 0.03 × 10^9 CFU/ml; bacterial viability ([5]; 200 ug/ml): 8.75 ± 1.28 × 10^8 CFU/ml; bacterial viability ([5]; 350 ug/ml): 800 ± 1300 CFU/ml; bacterial viability ([5]; 1000 ug/ml): 100 ± 100 CFU/ml; EC50 [5]: 730 ± 64 µM
